# Experimental data from US5629321A, “Bicyclic compound and platelet aggregation inhibitor containing the same” (Mitsui Toatsu Chemicals, Inc., priority 1994, dated 1997).
# Structures can show the parent of a compound that is named as a salt.
# What was measured:
# [1] = tested on: platelet aggregation; assay: Inhibition of platelet aggregation in Guinea pig (ADP-induced, platelet-rich plasma); type: cell-based, male guinea pig; conditions: Cavia porcellus, guinea pig PRP, ADP final concentration 5 μM, 37° C.
# Protocol: 1. Inhibition of platelet aggregation in Guinea pig
# Blood of male guinea pig was collected with an injection syringe which contains 3.8% sodium citrate as an anticoagulant in a ratio of 1 volume to 9 volumes of the blood. Successively, the collected blood mixture was subjected to centrifugation at 120×g for 15 minutes at room temperature to obtain platelet-rich plasma (PRP). The residual blood after separating PRP was further subjected to centrifugation at 1,200×g for 15 minutes to obtain platelet-poor plasma (PPP). Numbers of the platelet in PRP were measured with an automatic platelet counter: Sysmex PL-100 (manufactured by Toa Iyodensi Co.) and PRP was diluted with PPP so as to adjust a platelet concentration to be about 300,000 particles/μ 1. Platelet aggregation was measured by the following procedure with a 6 channel aggregometer: HEMA TRACER 1 (manufactured by NKK Co.).
# (§1) After warming 240 μl of PRP at 37° C. for 2 minutes, 30 μl of the solvent of specimen as a control or of the specimen having various concentrations was added to PRP. Further 2 minutes later, 30 μl of adenosine diphosphate (final concentration: 5 μM) was added to induce platelet aggregation. An inhibition percentage was obtained by comparing the maximum aggregation rate of the specimen drug group with that of control. […]
# [2] = tested on: platelet aggregation; assay: Inhibition of platelet aggregation in human (ADP-induced, platelet-rich plasma); type: cell-based; conditions: human PRP, ADP final concentration 5 μM, 37° C.
# Protocol: 2. Inhibition of platelet aggregation in human
# Blood was collected from healthy human volunteers with an injection syringe and mixed one volume of 3.8% sodium citrate as an anticoagulant to 9 volumes of the blood. Successively, the obtained blood mixture was subjected to centrifugation at 120×g for 15 minutes at room temperature to obtain platelet-rich plasma (PRP). The residual blood after separating the PRP was further subjected to centrifugation at 1,200×g for 20 minutes to obtain platelet-poor plasma (PPP). Numbers of the platelet were measured with an automatic platelet counter: Sysmex PL-100 (manufactured by Toa Iyodensi Co.) and PRP was diluted with PPP so as to adjust a platelet concentration to be about 250,000 particles/μl. Platelet aggregation was measured by the following procedure with a 6 channel aggregometer: HEMA TRACER 1 (manufactured by NKK Co.)
# as §1, with “or” for “or of”
Structure (SMILES),IC50 [1] [µM],IC50 [2] [µM]
"N=C(N)c1ccc(C(=O)Nc2ccc3c(c2)CC(CC(=O)O)CC3)cc1 (stereo not shown) [Compound No. 1, 7-[(4-amidinobenzoyl)amino]-1,2,3,4-tetrahydronaphthalene-2-acetic acid]",0.37,0.057
"CN(C(=O)c1ccc(C(=N)N)cc1)c1ccc2c(c1)CC(CC(=O)O)CC2 (stereo not shown) [Compound No. 47, 7-[N-(4-amidinobenzoyl)-N-methylamino]-1,2,3,4-tetrahydronaphthalene-2-acetic acid]",1.77,0.194
"N=C(N)c1ccc(COc2ccc3c(c2)CC(CC(=O)O)CC3)cc1 (stereo not shown) [Compound No. 80, 7-[(4-amidinobenzyl)oxy]-1,2,3,4-tetrahydronaphthalene-2-acetic acid]",,1.5
"N=C(N)c1ccc(C(=O)Nc2ccc3c(c2)CC(CC(=O)O)CO3)cc1 (stereo not shown) [Compound No. 17, 6-[(4-amidinobenzoyl)amino]chroman-3-acetic acid]",,0.049
"N=C(N)c1ccc(NC(=O)c2ccc3c(c2)CC(CC(=O)O)CC3)cc1 (stereo not shown) [Compound No. 9, 7-[N-(4-amidinophenyl)carbamoyl]-1,2,3,4-tetrahydronaphthalene-2-acetic acid]",0.23,0.046
"CN(C(=O)c1ccc2c(c1)CC(CC(=O)O)CC2)c1ccc(C(=N)N)cc1 (stereo not shown) [Compound No. 56, 7-[N-(4-amidinophenyl)-N-methylcarbamoyl]-1,2,3,4-tetrahydronaphthalene-2-acetic acid]",0.34,0.115
"CCOC(=O)CC1CCc2ccc(NC(=O)c3ccc(C(=N)N)cc3)cc2C1 (stereo not shown) [Compound No. 3, ethyl 7-[(4-amidinobenzoyl)amino]-1,2,3,4-tetrahydronaphthalene-2-acetate]",0.4,
"N=C(N)c1ccc(C(=O)Nc2ccc3c(c2)CN(CC(=O)O)CC3)cc1 [Compound No. 28, 7-[(4-amidinobenzoyl)amino]-1,2,3,4-tetrahydroisoquinoline-2-acetic acid]",6.6,0.293
"CCOC(=O)CC1CCc2ccc(C(=O)Nc3ccc(C(=N)N)cc3)cc2C1 (stereo not shown) [Compound No. 11, ethyl 7-[N-(4-amidinophenyl)carbamoyl]-1,2,3,4-tetrahydronaphthalene-2-acetate]",0.34,
"N=C(N)c1ccc(C(=O)Nc2ccc3c(c2)C(=O)N(CC(=O)O)CC3)cc1 [Comparative compound, 7-[(4-amidinobenzoyl)amino]-l-oxo-3,4-dihydroisoquinolone-2-acetic acid hydrochloride, reference compound]",> 100,3.9

# Results, then the compound that gave them:
IC50 [1] [µM],IC50 [2] [µM],Structure (SMILES)
14,,"NCc1ccc(C(=O)Nc2ccc3c(c2)CC(CC(=O)O)CC3)cc1 (stereo not shown) [Compound No. 123, 7-[(4-aminomethylbenzoyl)amino]-1,2,3,4-tetrahydronaphthalene-2-acetic acid]"
27,,"N=C(N)Nc1ccc(C(=O)Nc2ccc3c(c2)CC(CC(=O)O)CC3)cc1 (stereo not shown) [Compound No. 93, 7-[(4-guanidinobenzoyl)amino]-1,2,3,4-tetrahydronaphthalene-2-acetic acid]"
4.3,,"CCOC(=O)CN1CCc2ccc(C(=O)Nc3ccc(C(=N)N)cc3)cc2C1 [compound 37, ethyl 7-[N-(4-amidinophenyl)carbamoyl]-1,2,3,4-tetrahydroisoquinoline-2-acetate]"
41,,"N=C(N)c1ccc(COc2ccc3c(c2)C=C(CC(=O)O)CC3)cc1 [Compound No. 91, 7-[(4-amidinobenzyl)oxy]-3,4-dihydronaphthalene-2-acetic acid]"
24,,"N=C(N)c1ccc(CNc2ccc3c(c2)CC(CC(=O)O)CC3)cc1 (stereo not shown) [Compound No. 84, 7-[(4-amidinobenzyl)amino]-1,2,3,4-tetrahydronaphthalene-2-acetic acid]"
39,,"N=C(N)c1ccc(OCc2ccc3c(c2)CC(CC(=O)O)CC3)cc1 (stereo not shown) [Compound No. 82, 7-[(4-amidinophenoxy)methyl]-1,2,3,4-tetrahydronaphthalene-2-acetic acid]"
22,,"COC(=O)CC1CCc2ccc(OCc3ccc(C(=N)N)cc3)cc2C1 (stereo not shown) [Compound No. 81, methyl 7-[(4-amidinobenzyl)oxy]-1,2,3,4-tetrahydronaphthalene-2-acetate]"
12,,"N=C(N)c1ccc(COc2ccc3c(c2)CC(CC(=O)O)CO3)cc1 (stereo not shown) [Compound No. 89, 6-[(4-amidinobenzyl)oxy]chroman-3-acetic acid]"
17,,"CCOC(=O)CC1COc2ccc(OCc3ccc(C(=N)N)cc3)cc2C1 (stereo not shown) [Compound No. 90, ethyl 6-[(4-amidinobenzyl)oxy]chroman-3-acetate]"
